Values after ≈ are worked out from the molar mass of the structure shown. Residues, ends and D or L forms follow the SMILES beside them.
Legend:
human NMUR1 receptor = target: T1, human NMUR1 receptor (Homo sapiens, UniProt Q9HB89); assay: Radioligand binding competition assay (RLB), human NMUR1 receptor binding (SPA, [125I]-Neuromedin U-25); conditions: CHO-K1 hNMUR1 cell membranes, 4 hours at RT
T1 construct: host or cells: CHO-K1
T1 sequence (Q9HB89 24-426 limits assumed): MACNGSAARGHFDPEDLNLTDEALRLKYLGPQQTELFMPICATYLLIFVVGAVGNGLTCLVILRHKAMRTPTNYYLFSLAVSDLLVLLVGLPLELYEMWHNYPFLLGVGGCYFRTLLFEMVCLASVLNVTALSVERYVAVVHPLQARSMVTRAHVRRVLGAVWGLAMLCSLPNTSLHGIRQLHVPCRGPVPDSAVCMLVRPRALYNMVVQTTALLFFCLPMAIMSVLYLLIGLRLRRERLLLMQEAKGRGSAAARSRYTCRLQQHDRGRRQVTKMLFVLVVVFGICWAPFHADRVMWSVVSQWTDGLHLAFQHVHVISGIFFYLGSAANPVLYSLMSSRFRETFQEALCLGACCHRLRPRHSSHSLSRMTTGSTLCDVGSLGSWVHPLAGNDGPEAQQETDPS
From the text: Example 2: Radioligand Binding Competition Assay (RLB) Human NMUR1 Receptor Binding 1) Membranes The test is based on membranes prepared from a human NMUR1/Apoaequorin Stable Cell Line (Creative Biogene, Cat. No. CSC-RG1308). Cell Line Description: CHO-NMUR1 cell line is clonally-derived from a CHO-K1 cell line, which has been transfected with a bicistronic expression plasmid containing the sequence coding for the human neuromedin U receptor 1 (NM_006056.4, 180 to 1391). Mosaic-ID: CL16550614 Membrane preparation: Cells were broken by nitrogen cavitation (900 psi, 1 hour). Intact cells were removed by centrifugation (400 rcf, 10 minutes, 4° C.) before the crude membrane fraction was collected by ultracentrifugation (20.000 rcf, 1 hour, 4° C.). 2) Human NMUR1 Receptor Binding Assay (Radioligand: [125l]-Neuromedin U-25) In this Scintillation Proximity Assay (SPA) design, the membranes immobilize directly to the PVT-WGA-PEI type A beads (polyethyleneimine treated polyvinyltoluene beads coupled to wheatgerm agglutinin, Perkin Elmer) via interactions of wheat germ agglutinate and glycosylated membrane structures. Thereby the radioactively la-belled ligand, bound to NMUR1 receptors on the membrane, comes in close proximity to the solid scintillator of the PVT bead. Radioactive human neuromedin U-25 then stimulates the scintillant to emit light. In contrast, radioligand not bound to the receptor is too distant from the bead to elicit a signal. For the Scintillation Proximity Assay the CHO-K1 hNMUR1 cell membranes and SPA-beads are diluted to concentrations, which assure a robust signal to background ratio. The SPA incubation buffer consists of 25 mM Hepes (pH=7.0), 5 mM MgCl2, 1 mM CaCl2, 10 ug/mL Saponine and 0.1% bovine serum albumin and is used for all dilutions. Final assay setup in 96-well plate: 20 μL of 10× test compound dilutions+40 μL of 5× [125l]-Neuromedin U-25 (1× approx. 30 pM; 2000 μCi/mmol (μCi=microcurie))+60 μL membrane dilution (approx. 1.0 μg membrane protein)+80 μL SPA bead dilution (250 μg). The assay is incubated for 4 hours at RT, including controls for specific binding where no displacer is added and non-specific binding by adding unlabeled hNMU-25 at 100 nM. Bound radioactivity is determined by scintillation counting (MicroBeta Trilux 1450, Perkin Elmer, detection of 125I decay). […] The system assumes one binding site with no relevant radioligand depletion (<10%) and that the binding is reversible and at equilibrium. [formula] [formula]

physchem = type: physicochemical
Procedure: Example 6: Solubility Determination
Peptides (as TFA-salts) were weighed out in a filter unit (Mini-UniPrep Syringeless Filter 0.45 μm, Whatman PVDF), and 0.1 M phosphate buffer at pH 6 to 8 was added to achieve 10 mg/mL final peptide concentration. The peptides were dissolved by shaking the filter units horizontally at 350 rpm for 2 hours at room temperature. Samples were then filtered to remove any insoluble particles. Controls were prepared by weighing out the corresponding peptide solid material and dissolving it in an appropriate vehicle (e.g. buffer or DMSO) to a final concentration of 1 mg/mL. Both, the control and sample were analyzed by reversed phase chromatography. The area under the peak of the sample was compared to the control and the solubility was calculated based on that ratio. The pH was measured and recorded for each sample.

human NMUR2 receptor = human NMUR2 receptor (Homo sapiens, UniProt Q9GZQ4); assay: Radioligand binding competition assay (RLB), human NMUR2 receptor binding (SPA, [125I]-Neuromedin U-25); set-up: host or cells: CHO-K1; conditions: CHO-K1 hNMUR2 cell membranes, 4 hours at RT
Chain of human NMUR2 receptor (Q9GZQ4 whole entry): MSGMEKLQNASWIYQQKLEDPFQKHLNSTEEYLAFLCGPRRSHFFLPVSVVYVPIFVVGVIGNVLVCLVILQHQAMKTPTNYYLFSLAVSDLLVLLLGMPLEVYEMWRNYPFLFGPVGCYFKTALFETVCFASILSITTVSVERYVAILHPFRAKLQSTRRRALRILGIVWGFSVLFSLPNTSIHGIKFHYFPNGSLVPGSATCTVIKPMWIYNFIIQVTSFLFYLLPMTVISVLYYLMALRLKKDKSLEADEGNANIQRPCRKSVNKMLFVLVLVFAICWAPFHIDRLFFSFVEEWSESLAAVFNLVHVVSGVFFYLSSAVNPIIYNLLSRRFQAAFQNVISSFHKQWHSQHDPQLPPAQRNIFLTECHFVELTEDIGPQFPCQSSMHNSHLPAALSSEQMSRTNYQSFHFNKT
From the text: Example 1: Radioligand Binding Competition Assay (RLB) Human NMUR2 Receptor Binding
The test is based on membranes prepared from a Human NMUR2/Apoaequorin Stable Cell Line (Creative Biogene, Cat. No. CSC-RG1309).
Cell Line Description: CHO-NMUR2 cell line is clonally derived from a CHO-K1 cell line, which has been transfected with a bicistronic expression plasmid containing the sequence coding for the human neuromedin U receptor 2 (AF242874.1). MOSAIC-ID: CL16550616.
Membrane preparation: Cells were broken by nitrogen cavitation (900 psi, 1 hour). Intact cells were removed by centrifugation (400 rcf (relative centrifugal force), 10 minutes, 4° C.) before the crude membrane fraction was collected by ultracentrifugation (20.000 rcf, 1 hour, 4° C.).
2) Human NMUR2 Receptor Binding Assay (Radioligand: [125I]-Neuromedin U-25 (Human))
In this Scintillation Proximity Assay (SPA) design, the membranes immobilize directly to the PVT-WGA-PEI type A beads (polyethyleneimine treated polyvinyltoluene beads coupled to wheatgerm agglutinin, Perkin Elmer) via interactions of wheat germ agglutinate and glycosylated membrane structures. Thereby the radioactively la-belled ligand, bound to NMUR2 receptors on the membrane, comes in close proximity to the solid scintillator of the PVT bead. Radioactive human neuromedin U-25 then stimulates the scintillant to emit light. In contrast, radioligand not bound to the receptor is too distant from the bead to elicit a signal.
For the Scintillation Proximity Assay the CHO-K1 hNMUR2 cell membranes and SPA-beads are diluted to concentrations, which assure a robust signal to background ratio. The SPA incubation buffer consists of 25 mM Hepes (pH=7.0), 5 mM MgCl2, 1 mM CaCl2, 10 ug/mL Saponine and 0.1% bovine serum albumin and is used for all dilutions.
Final assay setup in 96-well plate: 20 μL of 10× test compound dilutions+40 μL of 5× [125l]-Neuromedin U-25 (1× approx. 30 pM; 2000 μCi/mmol)+60 μL membrane dilution (approx. 2.5 μg membrane protein)+80 μL SPA bead dilution (0.75 mg).
The assay is incubated for 4 hours at RT, including controls for specific binding where no displacer is added and non-specific binding by adding unlabeled hNMU-25 at 100 nM. Bound radioactivity is determined by scintillation counting (MicroBeta Trilux 1450, Perkin Elmer, detection of 125I decay). […] The system assumes one binding site with no relevant radioligand depletion (<10%) and that the binding is reversible and at equilibrium.

solubility at 2 h (physchem; pH 7.2) | Compound | Ki (human NMUR1 receptor) | solubility at 2 h (physchem; pH 7.3) | Ki (human NMUR2 receptor)
 | CCCC[C@H](NC(=O)[C@H](CC(C)C)N(C)C(=O)[C@H](Cc1ccccc1)NC(=O)[C@H](Cc1ccc(O)cc1)NC(=O)CN1CCN(CCNC(=O)CN(C)C(=O)CN(C)C(=O)CN(C)C(=O)CN(C)C(=O)CN(C)C(=O)CN(C)C(=O)CN(C)C(=O)CN(C)C(=O)CN(C)C(=O)CN(C)C(=O)CN(C)C(=O)CN(C)C(=O)CN(C)C(=O)CN(C)C(=O)CN(C)C(=O)CC[C@H](NC(=O)CC[C@H](NC(=O)CC[C@H](NC(=O)CCCCCCCCCCCCCCCCC(=O)O)C(=O)O)C(=O)O)C(=O)O)CC1)C(=O)N[C@@H](CCCN)C(=O)N1CCC[C@H]1C(=O)N[C@@H](CCCNC(=N)N)C(=O)NCC(N)=O [Compound 21, C18DA-gGlu3-Sar15-AEPipAc-Tyr-Phe-NMeLeu-Nle-Orn-Pro-Arg-Gly-NH2] (HELM PEPTIDE1{[O=C(O)CCCCCCCCCCCCCCCCC(=O)[*:2]].[gGlu].[gGlu].[gGlu].[Sar].[Sar].[Sar].[Sar].[Sar].[Sar].[Sar].[Sar].[Sar].[Sar].[Sar].[Sar].[Sar].[Sar].[Sar].[O=C(CN1CCN(CCN[*:1])CC1)[*:2]].Y.F.[meL].[Nle].[Orn].P.R.G.[am]}$$$$V2.0) | > 10000 nM | 7500 µg/mL (≈ 2.58 mM) | 55.9 nM
 | CCCC[C@H](NC(=O)[C@H](CC(C)C)N(C)C(=O)[C@H](Cc1ccccc1)NC(=O)[C@H](Cc1ccc(O)cc1)NC(=O)CN1CCN(CCNC(=O)CN(C)C(=O)CN(C)C(=O)CN(C)C(=O)CN(C)C(=O)CN(C)C(=O)CN(C)C(=O)CN(C)C(=O)CN(C)C(=O)CN(C)C(=O)CN(C)C(=O)CN(C)C(=O)CN(C)C(=O)CN(C)C(=O)CN(C)C(=O)CN(C)C(=O)CC[C@H](NC(=O)CC[C@H](NC(=O)CC[C@H](NC(=O)CCCCCCCCCCCCCCCCC(=O)O)C(=O)O)C(=O)O)C(=O)O)CC1)C(=O)N[C@@H](CCCN)C(=O)N(C)[C@@H](C)C(=O)N[C@@H](CCCNC(=N)N)C(=O)NCC(N)=O [Compound 22, C18DA-gGlu3-Sar15-AEPipAc-Tyr-Phe-NMeLeu-Nle-Orn-NMeAla-Arg-Gly-NH2] (HELM PEPTIDE1{[O=C(O)CCCCCCCCCCCCCCCCC(=O)[*:2]].[gGlu].[gGlu].[gGlu].[Sar].[Sar].[Sar].[Sar].[Sar].[Sar].[Sar].[Sar].[Sar].[Sar].[Sar].[Sar].[Sar].[Sar].[Sar].[O=C(CN1CCN(CCN[*:1])CC1)[*:2]].Y.F.[meL].[Nle].[Orn].[meA].R.G.[am]}$$$$V2.0) | > 10000 nM | 8600 µg/mL (≈ 2.97 mM) | 45.8 nM
 | CCCC[C@H](NC(=O)[C@H](CC(C)C)N(C)C(=O)[C@H](Cc1ccccc1)NC(=O)[C@H](Cc1ccc(O)cc1)NC(=O)CN1CCN(CCNC(=O)CN(C)C(=O)CN(C)C(=O)CN(C)C(=O)CN(C)C(=O)CN(C)C(=O)CN(C)C(=O)CN(C)C(=O)CN(C)C(=O)CN(C)C(=O)CN(C)C(=O)CN(C)C(=O)CN(C)C(=O)CN(C)C(=O)CN(C)C(=O)CN(C)C(=O)CC[C@H](NC(=O)CC[C@H](NC(=O)CC[C@H](NC(=O)CCCCCCCCCCCCCCCCC(=O)O)C(=O)O)C(=O)O)C(=O)O)CC1)C(=O)N[C@@H](CCN)C(=O)N(C)[C@@H](C)C(=O)N[C@@H](CCCNC(=N)N)C(=O)NCC(N)=O [Compound 23, C18DA-gGlu3-Sar15-AEPipAc-Tyr-Phe-NMeLeu-Nle-Dbu-NMeAla-Arg-Gly-NH2] (HELM PEPTIDE1{[O=C(O)CCCCCCCCCCCCCCCCC(=O)[*:2]].[gGlu].[gGlu].[gGlu].[Sar].[Sar].[Sar].[Sar].[Sar].[Sar].[Sar].[Sar].[Sar].[Sar].[Sar].[Sar].[Sar].[Sar].[Sar].[O=C(CN1CCN(CCN[*:1])CC1)[*:2]].Y.F.[meL].[Nle].[Dab].[meA].R.G.[am]}$$$$V2.0) | > 10000 nM | 8900 µg/mL (≈ 3.08 mM) | 38.8 nM
 | CCCC[C@H](NC(=O)[C@H](CC(C)C)N(C)C(=O)[C@H](Cc1ccccc1)NC(=O)[C@H](Cc1ccc(O)cc1)NC(=O)CN1CCN(CCNC(=O)CN(C)C(=O)CN(C)C(=O)CN(C)C(=O)CN(C)C(=O)CN(C)C(=O)CN(C)C(=O)CN(C)C(=O)CN(C)C(=O)CN(C)C(=O)CC[C@H](NC(=O)CC[C@H](NC(=O)CC[C@H](NC(=O)CCCCCCCCCCCCCCCCC(=O)O)C(=O)O)C(=O)O)C(=O)O)CC1)C(=O)N[C@@H](CCN)C(=O)N1CCC[C@H]1C(=O)N[C@@H](CCCNC(=N)N)C(=O)NCC(N)=O [Compound 24, C18DA-gGlu3-Sar9-AEPipAc-Tyr-Phe-NMeLeu-Nle-Dbu-Pro-Arg-Gly-NH2] (HELM PEPTIDE1{[O=C(O)CCCCCCCCCCCCCCCCC(=O)[*:2]].[gGlu].[gGlu].[gGlu].[Sar].[Sar].[Sar].[Sar].[Sar].[Sar].[Sar].[Sar].[Sar].[O=C(CN1CCN(CCN[*:1])CC1)[*:2]].Y.F.[meL].[Nle].[Dab].P.R.G.[am]}$$$$V2.0) | > 10000 nM | 9500 µg/mL (≈ 3.84 mM) | 52.3 nM
10000 µg/mL (≈ 3.65 mM) | CCCC[C@H](NC(=O)[C@H](CC(C)C)N(C)C(=O)[C@H](Cc1ccccc1)NC(=O)[C@H](Cc1ccc(O)cc1)NC(=O)CN1CCN(CCNC(=O)CN(C)C(=O)CN(C)C(=O)CN(C)C(=O)CN(C)C(=O)CN(C)C(=O)CN(C)C(=O)CN(C)C(=O)CN(C)C(=O)CN(C)C(=O)CN(C)C(=O)CN(C)C(=O)CN(C)C(=O)CC[C@H](NC(=O)CC[C@H](NC(=O)CC[C@H](NC(=O)CCCCCCCCCCCCCCCCC(=O)O)C(=O)O)C(=O)O)C(=O)O)CC1)C(=O)N[C@@H](CCCNC(=N)N)C(=O)N1CCC[C@H]1C(=O)N[C@@H](CCCNC(=N)N)C(=O)NCC(N)=O [Compound 25, C18DA-gGlu3-Sar12-AEPipAc-Tyr-Phe-NMeLeu-Nle-Arg-Pro-Arg-Gly-NH2] | > 10000 nM |  | 23.1 nM
